Test results: US20150315218A1, “SALTS OF PRODRUGS OF PIPERAZINE AND SUBSTITUTED PIPERIDINE ANTIVIRAL AGENTS” (Bristol-Myers Squibb Company, priority 2004, published 2015)
Where a name gives a salt, the structure may show the parent alone. Read-outs that look alike come from different tables or passages of the source. Each block holds one molecule with its values, some of them ahead of it.

Columns and labels:
[1] = IV and oral rat PK (MAP) studies A, B, C of phosphate prodrugs and parent studies A1, B1, C1; type: in vivo, Sprague-Dawley rats; conditions: male, Sprague-Dawley, rat, rats; for Vd: read-out: Vss i.v.; for concentration at 24 h: oral, read-out: Cp @ 24 hr p.o.; for AUC(0-t): AUC 0-24 h (μM * hr)
Description: The rats for oral dosing studies were fasted overnight. […] The dosing solutions of all three prodrugs for both IV and oral administration were prepared in 100% normal saline at 1 mg/mL (dosing solution concentrations were parent compound equivalent). Plasma samples were collected in EDTA vacutainers over 24 hrs, and analyzed by LC/MS/MS for both the prodrugs and parent molecules. Pharmacokinetic analysis was performed on Kinetica™.
Plasma and tissue samples were collected and stored at −20° C. until analysis. […] Rats were fasted overnight in PO studies. […] In the PO studies, rats (n=3) received PO doses of 5 and 100 mg/kg.
Male Sprague-Dawley rats (300-350 g, Hilltop Lab Animals, Inc., Scottdale, Pa.) with cannulas implanted in the jugular vein and/or bile duct were used. The rats were fasted overnight in the PO pharmacokinetic studies. Blood samples of 0.3 ml were collected from the jugular vein in EDTA-containing microtainer tubes (Becton Dickinson, Franklin Lakes, N.J.), and centrifuged to separate plasma.

[2] = in vitro; conditions: rat, serum
[3] = rat
[4] = in vitro; conditions: dog, serum
[5] = human
[6] = test system: monkey hepatocytes; assay: Hydrolysis of prodrug in hepatocytes (monkey); type: in vitro ADME
Description: (§1) The in vitro intrinsic clearance of Ibb in hepatocytes (Clint) was calculated as follows: Clint(μL/min/million cells)=Rate/CE where Rate is the rate of metabolism in hepatocytes (pmol/min/million cells), and CE is the concentration of Ibb in the incubation. The in vitro intrinsic clearance of Icb in hepatocytes (Clint) was calculated as follows: Clint(μL/min/million cells)=Rate/CE where Rate is the rate of metabolism in hepatocytes (pmol/min/million cells), and CE is the concentration of Icb in the incubation.

[7] = test system: dog hepatocytes; assay: Hydrolysis of prodrug in hepatocytes (dog); type: in vitro ADME
Description: as §1

[8] = Stability of prodrug in fresh EDTA blood (rat); conditions: for Ibb: Ibb in fresh rat EDTA blood, 37° C., n = 2
[9] = Stability of prodrug in fresh EDTA blood (monkey); conditions: for Ibb: Ibb in fresh monkey EDTA blood, 37° C., n = 2
[10] = Stability (hydrolysis) of prodrug in fresh serum (monkey); conditions: Ibb in fresh monkey serum, 37° C., n = 2
[11] = Solution and solid stability; type: physicochemical
[12] = Stability (hydrolysis) of prodrug in fresh serum (human); conditions: Ibb in fresh human serum, 37° C., n = 2
[13] = Aqueous / crystalline solubility; conditions: aqueous solution
[14] = Stability of prodrug in fresh EDTA blood (dog); conditions: for Ibb: Ibb in fresh dog EDTA blood, 37° C., n = 2
[15] = plasma, 1 mg/kg, historic, parent IV 1 mpk
[16] = plasma, 5 mg/kg, after PO prodrug dosing equivalent to 5 mpk of parent, analyte = label
[17] = plasma, 5 mg/kg, historic, after PO dosing of parent 5 mpk
[18] = plasma, po, 5 mg/kg, after PO prodrug dosing equivalent to 5 mpk of parent, analyte = label
[19] = plasma, po, 5 mg/kg, historic, after PO dosing of parent 5 mpk
[20] = plasma, po, 5 mg/kg, after PO prodrug dosing equivalent to 5 mpk of parent

Cmax ([1]; in vivo, 5 mg/kg, historic, after PO dosing of parent 5 mpk): 9.5 ± 2.8 µM
Vd [1, 15]: 0.49 ± 0.26 L/kg
half-life ([1]; plasma, iv, 1 mg/kg, after IV prodrug dosing equivalent to 1 mpk of parent, analyte = label, read-out: T1/2 i.v. (converted)): 90 ± 12 min
half-life ([1]; plasma, iv, 1 mg/kg, historic, parent IV 1 mpk, read-out: T1/2 i.v. (converted)): 354 ± 294 min
concentration at 24 h [1, 16]: 7.5 nM
concentration at 24 h [1, 17]: 161 nM
AUC(0-t) [1, 18]: 13.7 ± 2.6 µM·h
AUC(0-t) [1, 19]: 86 ± 33 µM·h
Tmax [1, 20]: 1.1 h
Cmax [1, 18]: 3.9 ± 0.8 µM
half-life ([1]; plasma, po, 5 mg/kg, after PO prodrug dosing equivalent to 5 mpk of parent, read-out: T1/2 p.o. (converted)): 144 ± 30 min
Tmax [1, 19]: 4.6 h
half-life ([1]; plasma, po, 5 mg/kg, historic, after PO dosing of parent 5 mpk, read-out: T1/2 p.o. (converted)): 222 ± 54 min
Compound: O=C(C(=O)N1CCN(C(=O)c2ccccc2)CC1)c1c[nH]c2c(-n3ccnn3)ncc(F)c12 [IVb]

half-life at 10 μM [2]: 42 min
conversion of prodrug to parent in blood containing EDTA [3]: < 2%
Icb ([3]; 0 min): 12 µM
Icb ([3]; 15 min): 11 µM
Icb ([3]; 90 min): 12 µM
half-life at 10 μM [4]: 156 min
conversion of prodrug to parent in blood containing EDTA [5]: < 2%
Icb ([5]; 0 min, 10 μM): 11 µM
Icb ([5]; 15 min): 11 µM
Icb ([5]; 30 min): 13 µM
Icb ([5]; 45 min, 10 μM): 12 µM
Icb ([5]; 60 min, 10 μM): 11 µM
Icb ([5]; 90 min, 10 μM): 11 µM
hydrolysis in the presence of hepatocytes [6]: No turnover was observed
hydrolysis in the presence of hepatocytes [7]: hydrolyzed
Compound: COc1cnc(-n2cnc(C)n2)c2c1c(C(=O)C(=O)N1CCN(C(=O)c3ccccc3)CC1)cn2COP(=O)(O)O [Icb, [3-[(4-benzoylpiperazin-1-yl)(oxo)acetyl]-4-methoxy-7-(3-methyl-1H-1,2,4-triazol-1-yl)-1H-pyrrolo[2,3-c]pyridin-1-yl]methyl dihydrogen phosphate, 2-amino-2-(hydroxymethyl)propane-1,3-diol salt (1:1)]

Vd [1, 15]: 0.4 ± 0.09 L/kg
concentration at 24 h [1, 16]: 84.3 nM
concentration at 24 h [1, 17]: 61 nM
AUC(0-t) [1, 18]: 56 ± 7.5 µM·h
AUC(0-t) [1, 19]: 110 ± 25 µM·h
Tmax [1, 20]: 0.8 ± 0.1 h
Cmax [1, 18]: 10.2 ± 2.1 µM
Cmax [1, 19]: 13.4 ± 3.6 µM
Tmax [1, 19]: 4 h
Compound: COc1cnc(-n2cnc(C)n2)c2[nH]cc(C(=O)C(=O)N3CCN(C(=O)c4ccccc4)CC3)c12 [IVc]

Compound: O=C(C(=O)N1CCN(C(=O)c2ccccc2)CC1)c1cn(COP(=O)(O)O)c2c(-n3ccnn3)ncc(F)c12 [Ibb, [3-[(4-benzoylpiperazin-1-yl)(oxo)acetyl]-4-fluoro-7-(1H-1,2,3-triazol-1-yl)-1H-pyrrolo[2,3-c]pyridin-1-yl]methyl dihydrogen phosphate, L-lysine salt (1:1)]
half-life at 15 μM [2]: 704 min
Ibb ([8]; 0 min): 15 µM
Ibb ([8]; 15 min): 15 µM
Ibb ([8]; 30 min): 18 µM
Ibb ([8]; 45 min): 15 µM
Ibb ([8]; 60 min): 16 µM
Ibb ([8]; 90 min): 17 µM
conversion of prodrug to parent in blood containing EDTA ([8]; rat blood, 37°C, 60 min (Iab) or 90 min (Ibb, Icb)): < 2%
Ibb ([9]; 0 min): 16 µM
Ibb ([9]; 15 min): 19 µM
Ibb ([9]; 30 min): 18 µM
Ibb ([9]; 45 min): 18 µM
Ibb ([9]; 60 min): 19 µM
Ibb ([9]; 90 min): 17 µM
conversion of prodrug to parent in blood containing EDTA ([9]; monkey blood, 37°C, 60 min (Iab) or 90 min (Ibb, Icb)): < 2%
half-life at 15 μM [4]: 167 min
Ibb ([10]; 0 min): 14 µM
Ibb ([10]; 15 min): 6.6 µM
Ibb ([10]; 30 min): 3.1 µM
Ibb ([10]; 45 min): 1.7 µM
Ibb ([10]; 60 min): 0.85 µM
Ibb ([10]; 90 min): 0.22 µM
hydrolysis in the presence of hepatocytes ([6]; monkey hepatocytes, qualitative): No turnover was observed
solution and solid stabilities [11]: acceptable solution and solid stabilities
Ibb ([12]; 0 min): 13 µM
Ibb ([12]; 15 min): 9.0 µM
Ibb ([12]; 30 min): 10 µM
Ibb ([12]; 45 min): 10 µM
Ibb ([12]; 60 min): 8.0 µM
Ibb ([12]; 90 min): 6.5 µM
concentration of aqueous solutions prepared for in vivo toxicology studies [13]: > 75 mg/mL
hydrolysis in the presence of hepatocytes ([7]; dog hepatocytes, qualitative): hydrolyzed
Ibb ([14]; 0 min): 13 µM
Ibb ([14]; 15 min): 12 µM
Ibb ([14]; 30 min): 15 µM
Ibb ([14]; 45 min): 16 µM
Ibb ([14]; 60 min): 13 µM
Ibb ([14]; 90 min): 16 µM
conversion of prodrug to parent in blood containing EDTA ([14]; dog blood, 37°C, 60 min (Iab) or 90 min (Ibb, Icb)): < 2%
